In PubChem BioAssay AID2060492 (Molecular Pharmacology Branch, DTP, NCI, 2025):

System: 695427-040-R-J1-PDC complex spheroids, viability percent T/C
Assay: Anticancer human tumor 695427-040-R-J1-PDC patient-derived colon adenocarcinoma cell line growth inhibition [GQUAD]
Conditions: for IC50: curve of first compound; for viability, T/C: stronger effect = lower value
Outline: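 Tumor cells were grown as complex spheroids with HUVEC endothelial cells and mesenchymal stem cells as stroma. G-quadruplex stabilizers were combined with targeted agents over half-log dilutions from near the clinical Cmax, or from 10 microM.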

[1] = second compound 0.0316 µM, first compound 0.0316 µM
[2] = second compound 0.0316 µM, first compound 0.1 µM
[3] = second compound 0.0316 µM, first compound 0.316 µM
[4] = second compound 0.0316 µM, first compound 1 µM
[5] = second compound 0.0316 µM, first compound 3.16 µM
[6] = second compound 0.0316 µM, first compound 10 µM
[7] = second compound 0.1 µM, first compound 0.0316 µM
[8] = second compound 0.1 µM, first compound 0.1 µM
[9] = second compound 0.1 µM, first compound 0.316 µM
[10] = second compound 0.1 µM, first compound 1 µM
[11] = second compound 0.1 µM, first compound 3.16 µM
[12] = second compound 0.1 µM, first compound 10 µM
[13] = second compound 0.316 µM, first compound 0.0316 µM
[14] = second compound 0.316 µM, first compound 0.1 µM
[15] = second compound 0.316 µM, first compound 0.316 µM
[16] = second compound 0.316 µM, first compound 1 µM
[17] = second compound 0.316 µM, first compound 3.16 µM
[18] = second compound 0.316 µM, first compound 10 µM
[19] = second compound 1 µM, first compound 0.0316 µM
[20] = second compound 1 µM, first compound 0.1 µM
[21] = second compound 1 µM, first compound 0.316 µM
[22] = second compound 1 µM, first compound 1 µM
[23] = second compound 1 µM, first compound 3.16 µM
[24] = second compound 1 µM, first compound 10 µM
[25] = second compound 3.16 µM, first compound 0.0316 µM
[26] = second compound 3.16 µM, first compound 0.1 µM
[27] = second compound 3.16 µM, first compound 0.316 µM
[28] = second compound 3.16 µM, first compound 1 µM
[29] = second compound 3.16 µM, first compound 3.16 µM
[30] = second compound 3.16 µM, first compound 10 µM
[31] = second compound 10 µM, first compound 0.0316 µM
[32] = second compound 10 µM, first compound 0.1 µM
[33] = second compound 10 µM, first compound 0.316 µM
[34] = second compound 10 µM, first compound 1 µM
[35] = second compound 10 µM, first compound 3.16 µM
[36] = second compound 10 µM, first compound 10 µM
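Note: spheroids exposed to compounds for seven days before readout.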

C=CC(=O)N1CCN(c2nc(=O)n(-c3c(C)ccnc3C(C)C)c3nc(-c4c(O)cccc4F)c(F)cc23)C(C)C1 (stereo unspecified) + Cc1cnc(CNC(=O)c2c(=O)c3ccc(N4CCCN(C)CC4)nc3n3c2sc2ccccc23)cn1
IC50 (second compound 0.0316 µM): > 10 µM
IC50 (second compound 0.1 µM): > 10 µM
IC50 (second compound 0.316 µM): > 10 µM
IC50 (second compound 1 µM): > 10 µM
IC50 (second compound 3.16 µM): < 0.0316 µM
IC50 (second compound 10 µM): < 0.0316 µM
viability, T/C [1]: 103%
viability, T/C [2]: 77%
viability, T/C [3]: 95.1%
viability, T/C [4]: 68.5%
viability, T/C [5]: 75.7%
viability, T/C [6]: 71.6%
viability, T/C [7]: 89.2%
viability, T/C [8]: 81.7%
viability, T/C [9]: 82.3%
viability, T/C [10]: 67.7%
viability, T/C [11]: 102%
viability, T/C [12]: 90.9%
viability, T/C [13]: 85.7%
viability, T/C [14]: 78.7%
viability, T/C [15]: 70.5%
viability, T/C [16]: 73.9%
viability, T/C [17]: 92.6%
viability, T/C [18]: 83.8%
viability, T/C [19]: 67.6%
viability, T/C [20]: 59.4%
viability, T/C [21]: 60%
viability, T/C [22]: 65.1%
viability, T/C [23]: 77.6%
viability, T/C [24]: 79.7%
viability, T/C [25]: 37.7%
viability, T/C [26]: 50.9%
viability, T/C [27]: 54.2%
viability, T/C [28]: 54.4%
viability, T/C [29]: 64.1%
viability, T/C [30]: 57.5%
viability, T/C [31]: 34.2%
viability, T/C [32]: 41.6%
viability, T/C [33]: 44.5%
viability, T/C [34]: 44.7%
viability, T/C [35]: 58.6%
viability, T/C [36]: 49.7%

CC(C)n1c(=O)n(C)c2cnc3cc(F)c(-c4ccc(OCCCN5CCCCC5)nc4)cc3c21 + Cc1cnc(CNC(=O)c2c(=O)c3ccc(N4CCCN(C)CC4)nc3n3c2sc2ccccc23)cn1
IC50 (second compound 0.0316 µM): > 10 µM
IC50 (second compound 0.1 µM): > 10 µM
IC50 (second compound 0.316 µM): > 10 µM
IC50 (second compound 1 µM): 7.26 µM
IC50 (second compound 3.16 µM): 2.61 µM
IC50 (second compound 10 µM): < 0.0316 µM
viability, T/C [1]: 80.7%
viability, T/C [2]: 80.8%
viability, T/C [3]: 88%
viability, T/C [4]: 80.9%
viability, T/C [5]: 84.6%
viability, T/C [6]: 56%
viability, T/C [7]: 87.1%
viability, T/C [8]: 76.8%
viability, T/C [9]: 91.7%
viability, T/C [10]: 66.3%
viability, T/C [11]: 84.6%
viability, T/C [12]: 51.5%
viability, T/C [13]: 89%
viability, T/C [14]: 49.6%
viability, T/C [15]: 75.8%
viability, T/C [16]: 71.6%
viability, T/C [17]: 85.4%
viability, T/C [18]: 56.3%
viability, T/C [19]: 90%
viability, T/C [20]: 64.4%
viability, T/C [21]: 69.9%
viability, T/C [22]: 68.6%
viability, T/C [23]: 73.5%
viability, T/C [24]: 41.1%
viability, T/C [25]: 51.5%
viability, T/C [26]: 47.4%
viability, T/C [27]: 57.8%
viability, T/C [28]: 54.6%
viability, T/C [29]: 49%
viability, T/C [30]: 20.4%
viability, T/C [31]: 43.5%
viability, T/C [32]: 40.3%
viability, T/C [33]: 45.8%
viability, T/C [34]: 42.6%
viability, T/C [35]: 43.1%
viability, T/C [36]: 0.95%

CC[C@@]1(O)C(=O)OCc2c1cc1n(c2=O)Cc2cc3c(CN(C)C)c(O)ccc3nc2-1 + Cc1cnc(CNC(=O)c2c(=O)c3ccc(N4CCCN(C)CC4)nc3n3c2sc2ccccc23)cn1
IC50 (second compound 0.0316 µM): > 0.316 µM
IC50 (second compound 0.1 µM): > 0.316 µM
IC50 (second compound 0.316 µM): > 0.316 µM
IC50 (second compound 1 µM): > 0.316 µM
IC50 (second compound 3.16 µM): < 0.000999 µM
IC50 (second compound 10 µM): < 0.000999 µM
viability, T/C (second compound 0.0316 µM, first compound 0.000999 µM): 92.5%
viability, T/C (second compound 0.0316 µM, first compound 0.00316 µM): 82.5%
viability, T/C (second compound 0.0316 µM, first compound 0.00999 µM): 89.7%
viability, T/C [1]: 76%
viability, T/C (second compound 0.0316 µM, first compound 0.0999 µM): 82.8%
viability, T/C [3]: 79.2%
viability, T/C (second compound 0.1 µM, first compound 0.000999 µM): 95.5%
viability, T/C (second compound 0.1 µM, first compound 0.00316 µM): 74.4%
viability, T/C (second compound 0.1 µM, first compound 0.00999 µM): 90.8%
viability, T/C [7]: 67.7%
viability, T/C (second compound 0.1 µM, first compound 0.0999 µM): 91.6%
viability, T/C [9]: 77.5%
viability, T/C (second compound 0.316 µM, first compound 0.000999 µM): 73.2%
viability, T/C (second compound 0.316 µM, first compound 0.00316 µM): 66.6%
viability, T/C (second compound 0.316 µM, first compound 0.00999 µM): 69%
viability, T/C [13]: 61.1%
viability, T/C (second compound 0.316 µM, first compound 0.0999 µM): 80.5%
viability, T/C [15]: 65.6%
viability, T/C (second compound 1 µM, first compound 0.000999 µM): 56.4%
viability, T/C (second compound 1 µM, first compound 0.00316 µM): 69.8%
viability, T/C (second compound 1 µM, first compound 0.00999 µM): 58.3%
viability, T/C [19]: 65.7%
viability, T/C (second compound 1 µM, first compound 0.0999 µM): 70.9%
viability, T/C [21]: 63.8%
viability, T/C (second compound 3.16 µM, first compound 0.000999 µM): 45.8%
viability, T/C (second compound 3.16 µM, first compound 0.00316 µM): 56.8%
viability, T/C (second compound 3.16 µM, first compound 0.00999 µM): 54.8%
viability, T/C [25]: 53.5%
viability, T/C (second compound 3.16 µM, first compound 0.0999 µM): 65.7%
viability, T/C [27]: 48.4%
viability, T/C (second compound 10 µM, first compound 0.000999 µM): 28.6%
viability, T/C (second compound 10 µM, first compound 0.00316 µM): 51.3%
viability, T/C (second compound 10 µM, first compound 0.00999 µM): 54%
viability, T/C [31]: 49.4%
viability, T/C (second compound 10 µM, first compound 0.0999 µM): 48.8%
viability, T/C [33]: 40.2%
